Results published in article PMC11905058, “Novel Leech Antimicrobial Peptides, Hirunipins: Real‐Time 3D Monitoring of Antimicrobial and Antibiofilm Mechanisms Using Optical Diffraction Tomography” (Advanced Science, 2025).
Residues, ends and D or L forms follow the SMILES beside them. No end group written: not given here.

Columns and labels:
MDRAB (329-53) [1] = details: for FICI: fractional inhibitory concentration index, FICA + FICB / Interpretation of FICI: antibiotic in combination with hirunipin 2; for MICA: MIC of antibiotic alone: checkerboard, MDRAB, 1×10^6 CFU/mL; for FICA: fractional inhibitory concentration of antibiotic ([A] / MICA) / [A]: MIC of antibiotic in combination: in combination with hirunipin 2
Protocol: Synergy testing by checkerboard assay: Briefly, each 96-well microtiter plate was inoculated with two-fold serial dilutions of two antibiotics, ranging from 1/8 MIC to 2 MIC, such that one antibiotic was inoculated in the columns and the other in the rows. Then, MDRAB (329-53) cells were inoculated at a concentration of 1× 10^6 CFU/mL. The plates were incubated overnight under static conditions and observed visually.

[2] = system: Escherichia coli [KCTC 1682]; assay type: cell-based; details: KCTC 1682, 24 h
Protocol: (§1) The MICs of the peptides were measured by the Clinical and Laboratory Standards Institute (CLSI) broth microdilution method, as outlined in a previous study.^[ [26], [27] ^]
(§2) Minimal Inhibitory Concentrations (MICs): Bacteria were grown to mid-logarithmic phase and diluted in Mueller-Hinton broth (MHB) (Difco). The bacterial suspension (1×10^6 CFU/well) was added to a 96-well microtiter plate along with a two-fold serial dilution of samples. The plate was incubated at 37 °C for 24 hours and the bacterial growth inhibition was assessed by measuring the optical density using an ELISA plate reader. The minimum inhibitory concentration (MIC) was defined as the lowest concentration of samples that prevented visible bacterial growth.

[3] = system: Pseudomonas aeruginosa [KCTC 1637]; assay type: cell-based; details: KCTC 1637, 24 h
Protocol: as §1, §2

[4] = system: Staphylococcus aureus [KCTC1621]; assay type: cell-based; details: KCTC1621, 24 h
Protocol: as §1, §2

[5] = system: Staphylococcus epidermidis [KCTC 1917]; assay type: cell-based; details: KCTC 1917, 24 h
Protocol: as §1, §2

E. coli (KCTC 1682) = assay type: cell-based, Escherichia coli; details: KCTC 1682, 24 h
Protocol: as §2, with “The salt sensitivity of the peptides was also analyzed. […] The MIC values in the physiological environment were determined as described above, and data were acquired from three independent assays performed in triplicate. Minimal” for “Minimal”

S. aureus (KCTC1621) = assay type: cell-based, Staphylococcus aureus; details: KCTC1621, 24 h
Protocol: as §2, with “The salt sensitivity of the peptides was also analyzed. […] The MIC values in the physiological environment were determined as described above, and data were acquired from three independent assays performed in triplicate. Minimal” for “Minimal”

MDRKP (328-83) = assay type: cell-based, Klebsiella pneumonia; details: 24 h
Protocol: as §1
(§3) Microbial Strains and Cell Lines: Multiple bacterial strains were used in this study. Standard stains included Escherichia coli (KCTC 1682), Pseudomonas aeruginosa (KCTC 1637), Staphylococcus aureus (KCTC1621) and Staphylococcus epidermidis (KCTC 1917) supplied from the Korean Collection for Type Cultures (KCTC) of the Korea Research Institute of Bioscience and Biotechnology (KRIBB). Clinically isolated multidrug-resistant bacteria included multidrug-resistant Klebsiella pneumonia (MDRKP 328-83), multidrug-resistant Acinetobacter baumannii (MDRAB 329-53), multidrug-resistant Pseudomonas aeruginosa (MDRPA 314-69), multidrug-resistant Enterobacter cloacae (MDRE 328-84) and multidrug-resistant Escherichia coli (MDREC 329-66) provided from Hospital of Chosun University, Korea. All bacterial strains were stored in 20% glycerol at −80 °C. For the subsequent experiments, the bacteria were recovered and cultured in the corresponding enrichment broth at 37 °C. The mouse macrophage RAW264.7, mouse fibroblast NIH-3T3 and human keratinocyte HaCat cells were cultured in Dulbecco’s modified Eagle’s medium (DMEM), supplemented with 10% (v/v) of fetal bovine serum (Sigma-Aldrich), 100 U/mL of penicillin and 0.1 mg/mL of streptomycin, at 37 °C in the presence of 5% CO2
as §2

MDRAB (329-53) [6] = assay type: cell-based, Acinetobacter baumannii; details: 24 h
Protocol: as §1, §3, §2

MDRPA (314-69) = assay type: cell-based, Pseudomonas aeruginosa; details: 24 h
Protocol: as §1, §3, §2

MDRE (328-84) = assay type: cell-based, Enterobacter cloacae; details: 24 h
Protocol: as §1, §3, §2

MDREC (329-66) = assay type: cell-based, Escherichia coli; details: 24 h
Protocol: as §1, §3, §2

Compound | Interpretation of FICI (MDRAB (329-53) [1]) | MICA: MIC of antibiotic alone (MDRAB (329-53) [1]) | FICA: fractional inhibitory concentration of antibiotic ([A] / MICA) (MDRAB (329-53) [1]) | [A]: MIC of antibiotic in combination (MDRAB (329-53) [1]) | Minimum inhibitory concentration (MIC), Escherichia coli [KCTC 1682] [2] | Minimum inhibitory concentration (MIC), Pseudomonas aeruginosa [KCTC 1637] [3] | Minimum inhibitory concentration (MIC), Staphylococcus aureus [KCTC1621] [4] | Minimum inhibitory concentration (MIC), Staphylococcus epidermidis [KCTC 1917] [5] | MIC against E. coli (KCTC 1682), 4 µM FeCl3 (E. coli (KCTC 1682)) | MIC against E. coli (KCTC 1682), 6 µM NH4Cl (E. coli (KCTC 1682)) | MIC against E. coli (KCTC 1682), 1 mM MgCl2 (E. coli (KCTC 1682)) | MIC against E. coli (KCTC 1682), 2.5 mM CaCl2 (E. coli (KCTC 1682)) | MIC against E. coli (KCTC 1682), 4.5 mM KCl (E. coli (KCTC 1682)) | MIC against E. coli (KCTC 1682), 150 mM NaCl (E. coli (KCTC 1682)) | MIC against E. coli (KCTC 1682), 25% Human serum (E. coli (KCTC 1682)) | MIC against E. coli (KCTC 1682), Control (E. coli (KCTC 1682)) | MIC against S. aureus (KCTC1621), 4 µM FeCl3 (S. aureus (KCTC1621)) | MIC against S. aureus (KCTC1621), 6 µM NH4Cl (S. aureus (KCTC1621)) | MIC against S. aureus (KCTC1621), 1 mM MgCl2 (S. aureus (KCTC1621)) | MIC against S. aureus (KCTC1621), 2.5 mM CaCl2 (S. aureus (KCTC1621)) | further results
O=C(N[C@H](CO)[C@H](O)c1ccc([N+](=O)[O-])cc1)C(Cl)Cl [CHL, Chloramphenicol] | synergy (FICI ≤ 0.5 was interpreted as synergy) | 1024 µg/mL | 0.125 | 128 µg/mL | – | – | – | – | – | – | – | – | – | – | – | – | – | – | – | – | FICI: fractional inhibitory concentration index, FICA + FICB (MDRAB (329-53) [1]): 0.1875
LLKKLLRSLIKPAIMKIINTPPQEKLQK-NH2 [Hirunipin 1] | – | – | – | – | 64 µg/mL | 32 µg/mL | 64 µg/mL | 32 µg/mL | 128 µg/mL | 128 µg/mL | 256 µg/mL | 256 µg/mL | 256 µg/mL | 256 µg/mL | 128 µg/mL | 64 µg/mL | 64 µg/mL | 256 µg/mL | 256 µg/mL | 256 µg/mL | MIC against S. aureus (KCTC1621), 4.5 mM KCl (S. aureus (KCTC1621)): 256 µg/mL; MIC against S. aureus (KCTC1621), 150 mM NaCl (S. aureus (KCTC1621)): 256 µg/mL; MIC against S. aureus (KCTC1621), 25% Human serum (S. aureus (KCTC1621)): 256 µg/mL; MIC against S. aureus (KCTC1621), Control (S. aureus (KCTC1621)): 64 µg/mL; Minimum inhibitory concentrations, MDRKP (328-83) (MDRKP (328-83)): >128 µg/mL; Minimum inhibitory concentrations, MDRAB (329-53) (MDRAB (329-53) [6]): >128 µg/mL; Minimum inhibitory concentrations, MDRPA (314-69) (MDRPA (314-69)): 64 µg/mL; Minimum inhibitory concentrations, MDRE (328-84) (MDRE (328-84)): >128 µg/mL; Minimum inhibitory concentrations, MDREC (329-66) (MDREC (329-66)): 64 µg/mL
O=C(O)c1cn(C2CC2)c2cc(N3CCNCC3)c(F)cc2c1=O [CIP, Ciprofloxacin] | synergy (FICI ≤ 0.5 was interpreted as synergy) | 128 µg/mL | 0.25 | 32 µg/mL | – | – | – | – | – | – | – | – | – | – | – | – | – | – | – | – | –
MKSINLKKVVKSIIKKILNSSF-NH2 [Hirunipin 2] | – | – | – | – | 32 µg/mL | 32 µg/mL | 32 µg/mL | 32 µg/mL | 8 µg/mL | 8 µg/mL | 32 µg/mL | 8 µg/mL | 8 µg/mL | 16 µg/mL | 64 µg/mL | 32 µg/mL | 32 µg/mL | 16 µg/mL | 32 µg/mL | 32 µg/mL | MIC against S. aureus (KCTC1621), 4.5 mM KCl (S. aureus (KCTC1621)): 32 µg/mL; MIC against S. aureus (KCTC1621), 150 mM NaCl (S. aureus (KCTC1621)): 32 µg/mL; MIC against S. aureus (KCTC1621), 25% Human serum (S. aureus (KCTC1621)): 64 µg/mL; MIC against S. aureus (KCTC1621), Control (S. aureus (KCTC1621)): 32 µg/mL; Minimum inhibitory concentrations, MDRKP (328-83) (MDRKP (328-83)): 128 µg/mL; Minimum inhibitory concentrations, MDRAB (329-53) (MDRAB (329-53) [6]): 64 µg/mL; Minimum inhibitory concentrations, MDRPA (314-69) (MDRPA (314-69)): 16 µg/mL; Minimum inhibitory concentrations, MDRE (328-84) (MDRE (328-84)): 32 µg/mL; Minimum inhibitory concentrations, MDREC (329-66) (MDREC (329-66)): 16 µg/mL; MICB: MIC of hirunipin 2 alone (MDRAB (329-53) [1]): 64 µg/mL
YFKIIKFLPKALKCLLPQKHKEHGNL-NH2 [Hirunipin 3] | – | – | – | – | 128 µg/mL | 128 µg/mL | 128 µg/mL | 64 µg/mL | 32 µg/mL | 64 µg/mL | 256 µg/mL | 32 µg/mL | 128 µg/mL | 128 µg/mL | 256 µg/mL | 128 µg/mL | >256 µg/mL | 256 µg/mL | 256 µg/mL | 256 µg/mL | MIC against S. aureus (KCTC1621), 4.5 mM KCl (S. aureus (KCTC1621)): 256 µg/mL; MIC against S. aureus (KCTC1621), 150 mM NaCl (S. aureus (KCTC1621)): 256 µg/mL; MIC against S. aureus (KCTC1621), 25% Human serum (S. aureus (KCTC1621)): >256 µg/mL; MIC against S. aureus (KCTC1621), Control (S. aureus (KCTC1621)): 128 µg/mL; Minimum inhibitory concentrations, MDRKP (328-83) (MDRKP (328-83)): >128 µg/mL; Minimum inhibitory concentrations, MDRAB (329-53) (MDRAB (329-53) [6]): >128 µg/mL; Minimum inhibitory concentrations, MDRPA (314-69) (MDRPA (314-69)): >128 µg/mL; Minimum inhibitory concentrations, MDRE (328-84) (MDRE (328-84)): >128 µg/mL; Minimum inhibitory concentrations, MDREC (329-66) (MDREC (329-66)): 128 µg/mL
CC[C@H](C)[C@H](NC(=O)[C@H](CO)NC(=O)[C@H](CCCNC(=N)N)NC(=O)[C@H](C)N)C(=O)N[C@@H](CCCCN)C(=O)N[C@@H](CCCCN)C(=O)N[C@H](C(=O)N[C@H](C(=O)N[C@@H](Cc1ccccc1)C(=O)N[C@@H](CO)C(=O)N[C@@H](CO)C(=O)N[C@@H](CO)C(=O)N[C@@H](CO)C(=O)N[C@@H](CCCNC(=N)N)C(=O)N[C@H](C(=O)N[C@@H](CS)C(=O)N1CCC[C@H]1C(=O)N1CCC[C@H]1C(=O)N[C@@H](CC(C)C)C(=O)N[C@@H](CCCCN)C(=O)N[C@@H](CCSC)C(=O)N[C@@H](CC(C)C)C(=O)N[C@@H](CCCCN)C(=O)N[C@@H](CC(C)C)C(=O)N[C@@H](CCCNC(=N)N)C(=O)N1CCC[C@H]1C(=O)N[C@@H](CS)C(=O)N[C@@H](Cc1ccccc1)C(=O)N[C@@H](CCCCN)C(=O)N[C@@H](CCCCN)C(=O)N[C@H](C(=O)N1CCC[C@H]1C(=O)N[C@@H](CCCCN)C(=O)N[C@@H](CC(C)C)C(=O)N[C@@H](CC(=O)O)C(=O)NCC(=O)N[C@@H](CCC(N)=O)C(=O)O)C(C)C)C(C)C)[C@@H](C)CC)C(C)C [LP15] (H-ARSIKKVIFSSSSRVCPPLKMLKLRPCFKKVPKLDGQ-OH; N-terminus and C-terminus assumed) | – | – | – | – | >128 µg/mL | >128 µg/mL | >128 µg/mL | >128 µg/mL | – | – | – | – | – | – | – | – | – | – | – | – | –
KLTPKPAKKVKKVVKF [LP1] | – | – | – | – | >128 µg/mL | >128 µg/mL | >128 µg/mL | >128 µg/mL | – | – | – | – | – | – | – | – | – | – | – | – | –
CO[C@H]1/C=C/O[C@@]2(C)Oc3c(C)c(O)c4c(O)c(c(/C=N/N5CCN(C)CC5)c(O)c4c3C2=O)NC(=O)/C(C)=C\C=C\[C@H](C)[C@H](O)[C@@H](C)[C@@H](O)[C@@H](C)[C@H](OC(C)=O)[C@@H]1C [RIF, Rifampicin] | synergy (FICI ≤ 0.5 was interpreted as synergy) | 16 µg/mL | 0.0625 | 1 µg/mL | – | – | – | – | – | – | – | – | – | – | – | – | – | – | – | – | FICI: fractional inhibitory concentration index, FICA + FICB (MDRAB (329-53) [1]): 0.3125
